Test results published in ChEMBL document CHEMBL6127070, “Design, synthesis, and molecular dynamic simulations of some novel benzo[d]thiazoles with anti-virulence activity against Pseudomonas aeruginosa” (Eur J Med Chem, 2024).
pIC50: −log10 of the molar value. In brackets after ≈: the same amount, converted by molar mass. Activity calls are given as the source filed them. No cut-off for these calls is given here.

Legend:
[1] = Inhibition of quorum sensing system in Pseudomonas aeruginosa transfected with lasB-gfp reporter gene incubated for 20 hrs by fluorescence based multilabel plate reader analysis
[2] = test system: Pseudomonas aeruginosa; assay: Antibiofilm activity against Pseudomonas aeruginosa assessed as inhibition of biofilm biomass at 300 microg/ml measured after 48 hrs relative to control; format: functional
[3] = Inhibition of quorum sensing system in Pseudomonas aeruginosa MH602 transfected with lasB promoter expressing gfp-ASV at 62.5 uM incubated for 20 hrs by microplate reader analysis relative to control
[4] = Inhibition of quorum sensing system in Pseudomonas aeruginosa MH602 transfected with lasB promoter expressing gfp-ASV at 125 uM incubated for 20 hrs by microplate reader analysis relative to control
[5] = Inhibition of quorum sensing system in Pseudomonas aeruginosa MH602 transfected with lasB promoter expressing gfp-ASV at 250 uM incubated for 20 hrs by microplate reader analysis relative to control
[6] = test system: Pseudomonas aeruginosa; assay: Antibacterial activity against Pseudomonas aeruginosa by CLSI protocol based broth microdilution method; format: functional
[7] = test system: Pseudomonas aeruginosa; assay: Antibacterial activity against Pseudomonas aeruginosa assessed as 1/4 MIC by CLSI protocol based broth microdilution method; format: functional
[8] = test system: Pseudomonas aeruginosa; assay: Antibacterial activity against Pseudomonas aeruginosa assessed as effect on bacterial growth at 16 microg/ml incubated for 24 hrs by growth curve analysis; format: functional, organism-based; details: dose 16.0 µg/ml
[9] = test system: Pseudomonas aeruginosa; assay: Inhibition of biofilm formation in Pseudomonas aeruginosa at sub-MIC by crystal violet staining based analysis relative to control; format: functional
[10] = test system: Pseudomonas aeruginosa; assay: Inhibition of biofilm formation in Pseudomonas aeruginosa assessed as absorbance by measuring OD at 570 nm at sub-MIC by crystal violet staining based analysis (reference value: 0.635 +/- 0.014); format: functional
[11] = test system: Pseudomonas aeruginosa; assay: Antivirulence activity in Pseudomonas aeruginosa assessed as inhibition of pyocyanin production at sub-MIC by chloroform-HCl extraction method relative to control; format: functional
[12] = test system: Pseudomonas aeruginosa; assay: Antivirulence activity in Pseudomonas aeruginosa assessed as inhibition of rhamnolipids production at sub-MIC by spectrophotometric method relative to control; format: functional
[13] = test system: Pseudomonas aeruginosa; assay: Antivirulence activity in Pseudomonas aeruginosa assessed as inhibition of pyocyanin production by measuring OD at […] at sub-MIC by chloroform-HCl extraction method relative to control; format: functional
[14] = test system: Pseudomonas aeruginosa; assay: Inhibition of biofilm formation in Pseudomonas aeruginosa at MIC incubated for 48 hrs by crystal violet staining based analysis relative to control; format: functional
[15] = test system: Pseudomonas aeruginosa; assay: Inhibition of biofilm formation in Pseudomonas aeruginosa PAO1 at 50 uM incubated for 24 hrs by crystal violet staining based analysis relative to control; format: functional
[16] = Inhibition of quorum sensing system in Pseudomonas aeruginosa PAO1 transfected with lasB-gfp reporter gene incubated for >=12 hrs by fluorescence based microplate reader analysis
[17] = Inhibition of quorum sensing system in Pseudomonas aeruginosa PAO1 assessed as reduction in pyocyanin production at 256 microg/ml relative to control; details: dose 256.0 µg/ml
[18] = test system: Pseudomonas aeruginosa; assay: Inhibition of biofilm formation in Pseudomonas aeruginosa PAO1 at 64 microg/ml relative to control; format: functional
[19] = test system: Pseudomonas aeruginosa; assay: Antibacterial activity against Pseudomonas aeruginosa assessed as bacterial mortality in presence of clarithromycin relative to control; format: functional
[20] = test system: Pseudomonas aeruginosa; assay: Antibacterial activity against Pseudomonas aeruginosa assessed as bacterial mortality in presence of ciprofloxacin relative to control; format: functional

In the case of `COc1ccc(C(=O)CSc2nc3ccccc3s2)c(OC)c1`, the IC50 [1] was 45.5 µg/mL (≈ 132 µM) and the inhibition at 300 µg/mL [2] was 70%.
In the case of `O=C(Cn1cc(-c2ccc([N+](=O)[O-])cc2)nn1)Nc1nc2ccccc2[nH]1`, the inhibition [3] was 63.7%, the inhibition [4] was 67.1% and the inhibition [5] was 68.2%.
In the case of `CC[C@H]1OC(=O)[C@H](C)[C@@H](O[C@H]2C[C@@](C)(OC)[C@@H](O)[C@H](C)O2)[C@H](C)[C@@H](O[C@@H]2O[C@H](C)C[C@H](N(C)C)[C@H]2O)[C@](C)(O)C[C@@H](C)CN(C)[C@H](C)[C@@H](O)[C@]1(C)O` [AZITHROMYCIN], the SubMIC [6] was 16 µg/mL, the MIC ([6]; Pseudomonas aeruginosa) was 85.4 µM (≈ 64 µg/mL) and the MIC [7] was 20.1 µM (≈ 15.1 µg/mL). The Activity [8] was “inactive”, the “inhibition (INH)” value [9] was 21.7% and the OD [10] was 0.307. The “inhibition (INH)” value [11] was 51.5%, the “inhibition (INH)” value [12] was 47.4% and the OD [13] was 0.216.
With `COC(=O)c1ccc(/N=N/c2c(N)nn3c(N)c(C#N)c(-c4ccc(N(C)C)cc4)nc23)cc1` the “inhibition (INH)” value [14] was 69%.
In the case of `[O-][S+](Cc1ccc(Cl)cc1)c1nc2cc(Cl)ccc2o1` (stereo unspecified), the inhibition at 50 µM [15] was 46.1% and the pIC50 [16] was 5.68.
In the case of `COc1ccc(OCCCCCCCC(=O)NNC(=O)Cn2c(=O)oc3ncccc32)cc1`, the inhibition [17] was 46.9%, the inhibition at 64 µg/mL [18] was 40% and the mortality [19] was 49.79%. It also gave a mortality [20] of 48.27%.
